Source: ChEMBL document CHEMBL1201862, “PubChem BioAssay data set” (2004)
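How tested: cells in 96-well plates exposed to compound for 48 hours at five concentrations. GI50 marks 50% less growth.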 Activity calls are given as the source filed them. Cut-off read from the data, not from the text of the source: active = GI50 up to about 1.1 µM and inactive = higher.

How the values were obtained:
Assay in all cases: NCI tumour cell line growth inhibition, 48 h
786-0 = tested on: 786-0
DU-145 = tested on: DU-145
EKVX = tested on: EKVX
HCT-15 = tested on: HCT-15
HOP-62 = tested on: HOP-62
IGROV-1 = tested on: IGROV-1
LOX IMVI = tested on: LOX IMVI
MCF7 = tested on: MCF7
Malme-3M = tested on: Malme-3M
NCI-H23 = tested on: NCI-H23
NCI/ADR-RES = tested on: NCI/ADR-RES
OVCAR-3 = tested on: OVCAR-3
OVCAR-5 = tested on: OVCAR-5
OVCAR-8 = tested on: OVCAR-8
RPMI-8226 = tested on: RPMI-8226
RXF 393 = tested on: RXF 393
SK-MEL-28 = tested on: SK-MEL-28
SW-620 = tested on: SW-620
UACC-257 = tested on: UACC-257
UO-31 = tested on: UO-31

| SMILES | GI50 (786-0) | GI50 (DU-145) | GI50 (EKVX) | GI50 (HCT-15) [µM] | GI50 (HOP-62) | GI50 (IGROV-1) | GI50 (LOX IMVI) | GI50 (MCF7) | GI50 (Malme-3M) | GI50 (NCI-H23) | GI50 (NCI/ADR-RES) | GI50 (OVCAR-3) | GI50 (OVCAR-5) | GI50 (OVCAR-8) | GI50 (RPMI-8226) | GI50 (RXF 393) | GI50 (SK-MEL-28) | GI50 (SW-620) | GI50 (UACC-257) | GI50 (UO-31) |
| --- | --- | --- | --- | --- | --- | --- | --- | --- | --- | --- | --- | --- | --- | --- | --- | --- | --- | --- | --- | --- |
| Nc1nc(SCc2ccccn2)c2ncn(C3CCCC3)c2n1 | > 100 µM (inactive) | > 100 µM (inactive) | > 100 µM (inactive) | > 100 | > 100 µM (inactive) | > 100 µM (inactive) | > 100 µM (inactive) | > 100 µM (inactive) | 82 µM (inactive) | > 100 µM (inactive) | > 100 µM (inactive) | > 100 µM (inactive) | > 100 µM (inactive) | > 100 µM (inactive) | > 100 µM (inactive) | > 100 µM (inactive) | > 100 µM (inactive) | > 100 µM (inactive) | > 100 µM (inactive) | 15 µM (inactive) |
| CN(C)CCNc1ccc2ncn3c4ccc(O)cc4c(=O)c1c23 | 0.612 µM (active) | 0.315 µM (active) | 5.22 µM (inactive) | 0.715 | 0.153 µM (active) | 1.09 µM (active) | 0.543 µM (active) | 0.0832 µM (active) | 2.64 µM (inactive) | 0.614 µM (active) | 3 µM (inactive) | 3.04 µM (inactive) | 3.38 µM (inactive) | 0.646 µM (active) | 0.735 µM (active) | 0.617 µM (active) | 4.53 µM (inactive) | 0.281 µM (active) | 5.74 µM (inactive) | 0.845 µM (active) |
| COc1ccc2c3c1OC1C(OC)(OC)CC4(C=C2)CN(C)CCC314 (stereo not given) | > 100 µM (inactive) | > 100 µM (inactive) | > 100 µM (inactive) | > 100 | > 100 µM (inactive) | > 100 µM (inactive) | > 100 µM (inactive) | > 100 µM (inactive) | > 100 µM (inactive) | > 100 µM (inactive) | > 100 µM (inactive) | > 100 µM (inactive) | > 100 µM (inactive) | > 100 µM (inactive) | > 100 µM (inactive) | > 100 µM (inactive) | > 100 µM (inactive) | > 100 µM (inactive) | > 100 µM (inactive) | > 100 µM (inactive) |
| C/C=C/[C@@H]1O[C@H](CC#C[Si](C)(C)C)[C@@]2(C=O)C(C)=CC[C@H](C(C)C)[C@@H]12 | 13.7 µM (inactive) | 21.3 µM (inactive) | 18.8 µM (inactive) | 21.1 | 25.4 µM (inactive) | 2.82 µM (inactive) | 4.5 µM (inactive) | 22.5 µM (inactive) | 19 µM (inactive) | 22.2 µM (inactive) | 23.3 µM (inactive) | 18.6 µM (inactive) | 21 µM (inactive) | 23.4 µM (inactive) | 5.7 µM (inactive) | 18 µM (inactive) | 20.3 µM (inactive) | 23.2 µM (inactive) | 12.9 µM (inactive) | 1.61 µM (inactive) |
| O=C1c2ccccc2NC(c2cc(Cl)cc(Cl)c2O)N1CCc1ccccn1 (stereo not given) | 60.1 µM (inactive) | 46.7 µM (inactive) | 62.5 µM (inactive) | 86.3 | > 100 µM (inactive) | > 100 µM (inactive) | > 100 µM (inactive) | 61 µM (inactive) | 30.8 µM (inactive) | > 100 µM (inactive) | 60.4 µM (inactive) | > 100 µM (inactive) | > 100 µM (inactive) | 80.2 µM (inactive) | 34.8 µM (inactive) | 44.7 µM (inactive) | > 100 µM (inactive) | 76.7 µM (inactive) | 97.9 µM (inactive) | > 100 µM (inactive) |
| CCN(CC)Cc1cc(/N=N\c2c(O)ccc3c(/N=N\c4ccc(O)c(CN(CC)CC)c4)c(O)ccc23)ccc1O | 1.87 µM (inactive) | 2.65 µM (inactive) | 4.56 µM (inactive) | 1.68 | 2.79 µM (inactive) | 2.99 µM (inactive) | 1.59 µM (inactive) | 2.39 µM (inactive) | 4.5 µM (inactive) | 3.56 µM (inactive) | 4.57 µM (inactive) | 3.73 µM (inactive) | 6.49 µM (inactive) | 2.12 µM (inactive) | 1.68 µM (inactive) | 2.94 µM (inactive) | 5.96 µM (inactive) | 3.29 µM (inactive) | 5.75 µM (inactive) | 2 µM (inactive) |
| Cc1ccc(N2C3=C(CC4=C2CC(C)(C)CC4=O)C(=O)CC(C)(C)C3)cc1 | > 100 µM (inactive) | > 100 µM (inactive) | > 100 µM (inactive) | > 100 | > 100 µM (inactive) | > 100 µM (inactive) | > 100 µM (inactive) | > 100 µM (inactive) | > 100 µM (inactive) | > 100 µM (inactive) | > 100 µM (inactive) | > 100 µM (inactive) | > 100 µM (inactive) | > 100 µM (inactive) | > 100 µM (inactive) | > 100 µM (inactive) | > 100 µM (inactive) | > 100 µM (inactive) | > 100 µM (inactive) | > 100 µM (inactive) |
